Experimental data: US20040058898A1, “Pharmaceutical composition for alleviating the violence of a mammal comprising nortestosterone derivatives” (priority 2002, published 2004)

Tests used:
Format in all cases: in vivo
[1] = system: male ostriches which violently behaved, cried and did not take feed; experiment: Alleviation of the violence and stimulation of the appetite in male ostrich; details: for Alleviation of the violence and stimulation of the appetite: results compared with 17β-decanoate-4-estren-3-one / Alleviation of the violence and stimulation of the appetite according to administered amount: results compared with 17β-decanoate-4-estren-3-one: male ostrich; for Alleviation of the violence and stimulation of the appetite: results compared with 17β-decanoate-4-estren-3-one: same procedures as Experimental Example 1 (100 kg, intramuscular, 100 mg), Example 1 result: alleviated violence and stimulated appetite; for Alleviation of the violence and stimulation of the appetite according to administered amount: results compared with 17β-decanoate-4-estren-3-one: same procedures as Experimental Example 2 (100 kg, intramuscular, 10 to 1000 mg), Example 2 result: alleviated violence and stimulated appetite at every amount
Text: (§1) After administration, their behaviors and appetites were observed.

[2] = system: male dogs which violently behaved, cried and did not take feed; experiment: Alleviation of the violence and stimulation of the appetite in male dog; details: male dogs 40 kg, 4, 8, 20, 40, 60, 80, 200 and 400 mg (0.1 to 10 mg per kg), Experimental Example 21, summary of Table 4
Text: as §1

[3] = system: male goats which violently behaved, cried and did not take feed; experiment: Alleviation of the violence and stimulation of the appetite in male goat; details: male goats 40 kg, 4, 8, 20, 40, 60, 80, 200 and 400 mg (0.1 to 10 mg per kg), Experimental Example 27, summary of Table 10
Text: as §1

[4] = system: male cats which violently behaved, cried and did not take feed; experiment: Alleviation of the violence and stimulation of the appetite in male cat; details: male cats 1 kg, 0.1, 0.2, 0.5, 1.0, 1.5, 2.0, 5.0 and 10 mg (0.1 to 10 mg per kg), Experimental Example 23, summary of Table 6
Text: as §1

[5] = system: male horses which violently behaved, cried and did not take feed; experiment: Alleviation of the violence and stimulation of the appetite in male horse; details: male horses 200 kg, 20, 40, 100, 200, 300, 400, 1000 and 2000 mg (0.1 to 10 mg per kg), Experimental Example 25, summary of Table 8
Text: as §1

[6] = male ostriches 100 kg, 10, 20, 50, 100, 150, 200, 500 and 1000 mg (0.1 to 10 mg per kg), Experimental Example 2, summary of Table 2

Structure (SMILES)	Alleviation of the violence and stimulation of the appetite: results compared with 17β-decanoate-4-estren-3-one [1]	Alleviation of the violence and stimulation of the appetite according to administered amount: results compared with 17β-decanoate-4-estren-3-one [1]	other results
C[C@]12CC[C@H]3[C@@H](CCC4=CC(=O)CC[C@@H]43)[C@@H]1CC[C@@H]2OC(=O)c1ccccc1 [17β-benzoate-4-estren-3-one]	the same with the result of the experiment using 17β-decanoate-4-estren-3-one in Experimental Example 1	the same with the result of the experiment using 17β-decanoate-4-estren-3-one in Experimental Example 2	
C[C@]12CC[C@H]3[C@@H](CCC4=CC(=O)CC[C@@H]43)[C@@H]1CC[C@@H]2OC(=O)C1CCCCC1 [17β-cyclohexanecarboxylate-4-estren-3-one]	the same with the result of the experiment using 17β-decanoate-4-estren-3-one in Experimental Example 1	the same with the result of the experiment using 17β-decanoate-4-estren-3-one in Experimental Example 2	
C[C@]12CC[C@H]3[C@@H](CCC4=CC(=O)CC[C@@H]43)[C@@H]1CC[C@@H]2OC(=O)CCC1CCCCC1 [17β-cyclohexylpropinoate-4-estren-3-one]	the same with the result of the experiment using 17β-decanoate-4-estren-3-one in Experimental Example 1		
CCCCCCCCCCCC(=O)O[C@H]1CC[C@H]2[C@@H]3CCC4=CC(=O)CC[C@@H]4[C@H]3CC[C@]12C [17β-dodecanoate-4-estren-3-one]	the same with the result of the experiment using 17β-decanoate-4-estren-3-one in Experimental Example 1	the same with the result of the experiment using 17β-decanoate-4-estren-3-one in Experimental Example 2	
C[C@]12CC[C@H]3[C@@H](CCC4=CC(=O)CC[C@@H]43)[C@@H]1CC[C@@H]2O [17β-hydroxy-4-estren-3-one]	the same with the result of the experiment using 17β-decanoate-4-estren-3-one in Experimental Example 1	the same with the result of the experiment using 17β-decanoate-4-estren-3-one in Experimental Example 2	appetite after intramuscular injection [1, 6]: appetite stimulated; feed intake after administration [1, 6]: increased feed intake; violence of estrus after intramuscular injection [1, 6]: violence of estrus alleviated; appetite after intramuscular injection [2]: appetite stimulated; feed intake after administration [2]: increased feed intake; violence of estrus after intramuscular injection [2]: violence of estrus alleviated; appetite after intramuscular injection [3]: appetite stimulated; feed intake after administration [3]: increased feed intake; violence of estrus after intramuscular injection [3]: violence of estrus alleviated; appetite after intramuscular injection [4]: appetite stimulated; feed intake after administration [4]: increased feed intake; violence of estrus after intramuscular injection [4]: violence of estrus alleviated; appetite after intramuscular injection [5]: appetite stimulated; feed intake after administration [5]: increased feed intake; violence of estrus after intramuscular injection [5]: violence of estrus alleviated
CCCCCCOc1ccc(CCC(=O)O[C@H]2CC[C@H]3[C@@H]4CCC5=CC(=O)CC[C@@H]5[C@H]4CC[C@]23C)cc1 [17β-p-hexyloxyphenylpropionate-4-estren-3-one]	the same with the result of the experiment using 17β-decanoate-4-estren-3-one in Experimental Example 1	the same with the result of the experiment using 17β-decanoate-4-estren-3-one in Experimental Example 2	
C[C@]12CC[C@H]3[C@@H](CCC4=CC(=O)CC[C@@H]43)[C@@H]1CC[C@@H]2OC(=O)CCc1ccccc1 [17β-phenpropionate-4-estren-3-one]	the same with the result of the experiment using 17β-decanoate-4-estren-3-one in Experimental Example 1	the same with the result of the experiment using 17β-decanoate-4-estren-3-one in Experimental Example 2	
CCC(=O)O[C@H]1CC[C@H]2[C@@H]3CCC4=CC(=O)CC[C@@H]4[C@H]3CC[C@]12C [17β-propionate-4-estren-3-one]	the same with the result of the experiment using 17β-decanoate-4-estren-3-one in Experimental Example 1	the same with the result of the experiment using 17β-decanoate-4-estren-3-one in Experimental Example 2	
